In US20200131156A1, “ARYLSULFONYLPYROLECARBOXAMIDE DERIVATIVES AS Kv3 POTASSIUM CHANNEL ACTIVATORS” (H. Lundbeck A/S, priority 2018, published 2020):
Where two headings read alike, the source gives them in different places.

Tests used:
[1] = system: fast-spiking interneurons (FSI); test: Hippocampal brain slice current clamp recording, FSI excitability (AP firing); type: cell-based, rat
Experimental: Male Sprague Dawley rats (18˜24 days old) from Shanghai Laboratory Animal Center (Shanghai, China) were used for brain slice experiments. They were housed in groups of five in controlled conditions (temperature of 23±3° C., humidity of 40-70%, and 12:12 light-dark cycle with lights on at 5:00 am) and free access to food and water. All procedures were conducted in agreement with the guideline of Institutional Animal Care and Use Committee at ChemPartner. Ethical approval was obtained by the The Danish Animal Experimentation Inspectorate (journal no. 2014 15 0201 00339).
Animals were decapitated by a guillotine and their brains quickly removed and placed in ice-cold modified artificial cerebral spinal fluid (ACSF) containing (in mM): 110 sucrose, 60 NaCl, 3 KCl, 5 glucose, 28 NaHCO3, 1.25 NaH2PO4, 0.5 CaCl2 and 7 MgCl2, aerated with 95% O2/5% CO2. The brains were block-trimmed and glued onto the stage of a vibratome (VT1200S, Leica Microsystems Inc., Bannockburn, Ill., USA). Parasagittal hippocampal slices (300 μm) were cut and incubated in the regular carbogenated ACSF containing (in mM): 119 NaCl, 2.5 KCl, 1.2 Na2HPO4, 25 NaHCO3, 2.5 CaCl2, 1.3 MgCl2, 10 glucose at 35° C. for the first 60 min and then transferred to room temperature prior to recordings.
In the hippocampal CA1 pyramidal cell layer, fast-spiking interneurons (FSI) or pyramidal (PYR) cells were visualized using differential interference contrast-infrared (DIC-IR)-assisted microscopy and whole-cell patch clamp recordings performed using an Axon Multiclamp 700B amplifier (Molecular Devices, Union City, Calif.). FSI were selected based on non-pyramidal shape and multipolar dendrites. Putative FSI were only accepted for experiments if they fulfilled the following electrophysiological criteria: short duration action potentials (APs <1 ms), large after hyperpolarizations, and, in response to sustained current injection, high frequency AP firing (>100 Hz) with limited spike frequency adaptation. Patch pipettes (4-5MΩ) were pulled from thick-walled borosilicate glass tubing (O.D.: 1.5 mm, I.D.: 0.75 mm; Sutter Instrument, Novato, Calif., USA).
Whole cell patch clamp recordings in current clamp mode were used to study neuronal excitability. AP firing was recorded in the presence of 50 μM APV, 10 μM DNQX and 10 μM Gabazine to block all synaptic transmission mediated by NMDA, AMPA and GABAA receptors. Patch pipettes were filled with an intracellular solution containing (in mM): 110 KMeSO4, 10 HEPES, 1 EGTA, 2 MgCl2, 4 Na2-ATP, 0.4 TRIS-GTP, 10 Tris2-Phosphocreatine, pH adjusted to 7.3 with KOH. The osmolarity was adjusted to 290 mOsm with sucrose. The holding potential was maintained continuously at −70 mV by manual DC injection. Series resistance (10-20 MΩ after “break-in”) was 90% compensated and monitored constantly during the entire experiment by “bridge”-balancing of the instantaneous voltage responses to a hyperpolarizing current pulse before each depolarizing stimulus delivery. A series of depolarizing current steps (800 ms-long) were applied every 3 min. Following at least 15 min of stable activity, Kv3 channel modulators were applied to the ACSF at increasing concentrations.

[2] = In vivo pharmacokinetic time profile in rats (plasma and brain); conditions: rat; for Cmax / half-life / Kp: male, Sprague Dawley; for Cmax / half-life: plasma; for Cmax: vehicle 10% HP-betaCD; for half-life: read-out: T½ (converted); for Kp: brain, read-out: measured brain/plasma ratio
Experimental: Male Sprague Dawley rats or male C57 mice from SLAC Laboratory Animal Co. Ltd., Shanghai, China or SIPPR/BK Laboratory Animal Co. Ltd., Shanghai, China were used for pharmacokinetic studies. Animals were group housed during acclimation and individually housed during in-life. The animal room environment was controlled (conditions: temperature 20 to 26° C., relative humidity 30 to 70%, 12 hours artificial light and 12 hours dark) and all animals have access to Certified Rodent Diet (Beijing KEAO XIELI Feed Co., Ltd. Beijing, P.R. China.) ad libitum. Animals were deprived of food overnight prior to dosing and fed approximately 4 hours post-dosing. Water was autoclaved before provided to the animals ad libitum.
For oral dosing, the dose formulation was administered via oral gavage.
Animals were anesthetized via isoflurane. At terminal time point, about 200 μL blood was collected from cardiac puncture or abdominal vein. All blood samples were transferred into microcentrifuge tubes containing 5 μL of K2EDTA (0.5 M) as anti-coagulant and placed on wet ice until processed for plasma by centrifugation (3,000 rpm for 5 minutes at 2 to 8° C.) within half an hour of collection and kept at −70±10° C. until LC/MSMS analysis
After blood collection, brain was harvested and washed twice with cold deionized water, and blotted on filter paper, weighted and frozen until processed. Brain samples were thawed and homogenized with 4-fold of cold water using Covaris (peak power 450.0, Duty Factor 20.0, Cycles/Burst 200). for 3 min, vortex for 10 second every 1 min. Samples were further stored at −79° C. (dilution factor=5) until bioanalysis

[3] = Unbound fraction in brain; type: in vitro ADME, rat
[4] = Unbound fraction in brain (mouse PK table footnote); type: in vitro ADME
[5] = 3 mg/mg, SC administration, dose 3 (mg/mg [sic])
[6] = 30 mg/mg, SC administration, dose 30 (mg/mg [sic])
[7] = PO administration, dose 3 (mg/mg)
[8] = PO administration, dose 30 (mg/mg)
[9] = SC administration, dose 3 (mg/mg)
[10] = SC administration, dose 10 (mg/mg)

For Cc1ccc(S(=O)(=O)n2ccc(C(=O)NCc3ncco3)c2)cc1 [Compound 86, 1-(4-methylbenzene-1-sulfonyl)-N-[(1,3-oxazol-2-yl)methyl]-1H-pyrrole-3-carboxamide], the “FSI excitability (number of APs)” value ([1]; 10 μM) was “slight reduction in excitability”, the “FSI excitability (number of APs)” value ([1]; 0.3 and 1 μM) was “increased excitability” and the Cmax [2, 5] was 1100 ng/mL. For the same molecule, the half-life [2, 5] was 18 min, the Cmax [2, 6] was 7620 ng/mL and the half-life [2, 6] was 24 min. For the same molecule, the Kp ([2]; subcutaneous) was 0.25, the “Estimated unbound brain Cmax” value ([2]; SC, dose 3 (mg/mg [sic]), based on brain/plasma ratio 0.25 and unbound fraction in brain 12%) was 95 nM and the “Unbound plasma, Cmax” value ([2]; SC, dose 3 (mg/mg [sic]), unbound fraction in plasma 12%) was 380 nM. For the same molecule, the “Estimated unbound brain Cmax” value ([2]; SC, dose 30 (mg/mg [sic]), based on brain/plasma ratio 0.25 and unbound fraction in brain 12%) was 663 nM, the “Unbound plasma, Cmax” value ([2]; SC, dose 30 (mg/mg [sic]), unbound fraction in plasma 12%) was 2650 nM and the fraction unbound ([3]; rat table footnote) was 0.12. The fraction unbound [4] was 0.11.

With Cc1cnc(CNC(=O)c2ccn(S(=O)(=O)c3ccc(F)cc3C)c2)cn1 [Compound 90, 1-(4-fluoro-2-methylbenzene-1-sulfonyl)-N-[(5-methylpyrazin-2-yl)methyl]-1H-pyrrole-3-carboxamide] the “FSI excitability (number of APs)” value ([1]; 10 μM) was “decreased, reaching a level below baseline”, the “FSI excitability (number of APs)” value ([1]; 0.3 and 1 μM) was “increase in FSI excitability” and the FSI excitability ([1]; low concentrations (0.1 and 1 μM)) was “increases FSI excitability”. The Cmax [2, 7] was 627 ng/mL, the half-life [2, 7] was 120 min and the Cmax [2, 8] was 3940 ng/mL. It also gave a half-life [2, 8] of 66 min, a Cmax [2, 9] of 427 ng/mL and a half-life [2, 9] of 48 min. For the same molecule, the Cmax [2, 10] was 1370 ng/mL, the half-life [2, 10] was 42 min and the Kp [2] was 0.5. The “Estimated unbound brain Cmax” value ([2]; PO, dose 3 (mg/mg), based on brain/plasma ratio 0.5 and unbound fraction in brain 8%) was 65 nM, the “Unbound plasma, Cmax” value ([2]; PO, dose 3 (mg/mg), unbound fraction in plasma 10%) was 160 nM and the “Estimated unbound brain Cmax” value ([2]; PO, dose 30 (mg/mg), based on brain/plasma ratio 0.5 and unbound fraction in brain 8%) was 406 nM. The “Unbound plasma, Cmax” value ([2]; PO, dose 30 (mg/mg), unbound fraction in plasma 10%) was 1015 nM, the “Estimated unbound brain Cmax” value ([2]; SC, dose 3 (mg/mg), based on brain/plasma ratio 0.5 and unbound fraction in brain 8%) was 44 nM and the “Unbound plasma, Cmax” value ([2]; SC, dose 3 (mg/mg), unbound fraction in plasma 10%) was 110 nM. For the same molecule, the “Estimated unbound brain Cmax” value ([2]; SC, dose 10 (mg/mg), based on brain/plasma ratio 0.5 and unbound fraction in brain 8%) was 142 nM, the “Unbound plasma, Cmax” value ([2]; SC, dose 10 (mg/mg), unbound fraction in plasma 10%) was 353 nM and the fraction unbound ([3]; rat PK table footnote) was 0.08. The fraction unbound [4] was 0.1.
